Assay results from patent publication US4746675A, “External pharmaceutical composition” (Teijin Limited, priority 1983, dated 1988).

How the values were obtained:
[1] = diffusion of drug through egg shell membrane in diffusion cell; format: in vitro ADME
Method: A diffusion cell was partitioned by an egg shell membrane. […] While maintaining a temperature of 37° C., the two liquid phases were stirred, and after a lapse of a predetermined period of time, the amount of the drug which diffused into the acceptor side from the donor side was measured.
The diffusion cell used was a glass cell for use in an ordinary diffusion experiment. The egg shell was obtained by removing the contents of an egg from the shell, immersing the shell in 0.7% acetic acid for 30 minutes, subjecting it to ultrasonication for 15 minutes, and carefully peeling the membrane from the shell.
A control test was carried out in the same way as above except that only the drug was added to the donor side.
The amount of the drug which diffused to the acceptor side was measured 30 minutes later, and compared with the control.
The relative amount of the drug diffused from the drug-penetration enhancer system was calculated by taking the amount of the drug diffused from the control donor side as 100. […] Bull., Vol. 20, p.

carrageenan edema = carrageenan edema inhibiting effect of betamethasone valerate ointments; format: in vivo, rat; conditions: Table 5, betamethasone valerate ointment with penetration enhancer
Method: An ointment was prepared from 0.15 part by weight of betamethasone valerate, 9.85 parts by weight of compound (168) and 90 parts by weight of the hydrophilic ointment.
In accordance with the method of R. Passarella et al. [Argneim. Forsch 30, (I), Nr. 4, 647-651 (1980)], the carrageenan edema inhibiting effect of the above ointment was examined. Specifically, 0.1 ml of a 1% carrageenan suspension in 0.9% NaCl solution was injected into the tip of the right leg of a rat (body weight 150-175 g). The foot volume was measured immediately after administration of carrageenan and 3, 5, and 6 hours after the administration by means of a mercury displacement device. 0.5, 1 and 2 hours after the administration of carrageenan, 100 mg of the ointment was well […] into each of the sites which underwent inflammation.
Various ointments were prepared from 0.15 part by weight of betamethasone valerate, […] of the various penetration enhancers shown in Table 5, and 85 parts by weight of the hydrophilic ointment, and tested in the same way as in Example 23.

[2] = test system: eye (cornea, iris, conjunctiva); assay: primary eye irritation (Draize) in rabbits; format: in vivo, white native male rabbits; conditions: 2.4% soln, average of three rabbits
Method: enhancers of this invention shown in Table 17 was applied dropwise to one eye of white native male rabbits (body weight 2.0 to 3.0 kg; 3 per group) which, it had been ascertained, were free from any trouble at the cornea, iris and conjunctiva. Nothing was applied to the other eye. Thus, irritation of the absorption aid to the mucous membrane of the eyes were examined, and scores were calculated in accordance with the Draize's eye irritation evaluating method [Association of Foods, "Drugs and Cosmetics" (1957)].
As a control, sodium laurylsulfate, a kind of surface-active agent, was evaluated in the same way, and the results are also shown in Table 17.

SMILES | Percentage inhibition vs. control (carrageenan edema; 3 hrs) [%] | Percentage inhibition vs. control (carrageenan edema; 5 hrs) [%] | Percentage inhibition vs. control (carrageenan edema; 6 hrs) [%] | Primary irritation score, Conjunctiva ([2]; 1 hour) | Primary irritation score, Cornea ([2]; 1 hour) | Primary irritation score, Iris ([2]; 1 hour) | Primary irritation score, Total ([2]; 1 hour) | Primary irritation score, Conjunctiva ([2]; 3 hours) | Primary irritation score, Cornea ([2]; 3 hours) | Primary irritation score, Iris ([2]; 3 hours) | Primary irritation score, Total ([2]; 3 hours) | Primary irritation score, Conjunctiva ([2]; 6 hours) | Primary irritation score, Cornea ([2]; 6 hours) | Primary irritation score, Iris ([2]; 6 hours) | Primary irritation score, Total ([2]; 6 hours) | Primary irritation score, Conjunctiva ([2]; 24 hours) | Primary irritation score, Cornea ([2]; 24 hours) | Primary irritation score, Iris ([2]; 24 hours) | Primary irritation score, Total ([2]; 24 hours) | Primary irritation score, Conjunctiva ([2]; 48 hours) | further results
C=C1/C(=C\C=C2/CCC[C@]3(C)[C@@H]([C@H](C)CCCC(C)(C)O)CC[C@@H]23)C[C@@H](O)C[C@@H]1O [1,25-Dihydroxyvitamin D3] | – | – | – | – | – | – | – | – | – | – | – | – | – | – | – | – | – | – | – | – | Relative amount of the drug diffused [1]: 123
CCC=CCCCCCCCCOCC(O)COC(=O)[C@@H]1CCC(=O)N1 (stereo partly drawn) [Compound (134), 3-(9-dodecenyloxy)-2-hydroxy-1-pyroglutamyloxypropane] | 16.4 | 30.3 | 34.2 | 3.3 | 0 | 0 | 3.3 | 1.3 | 0 | 0 | 1.3 | 1.3 | 0 | 0 | 1.3 | 0 | 0 | 0 | 0 | 0 | Primary irritation score, Cornea ([2]; 48 hours): 0; Primary irritation score, Iris ([2]; 48 hours): 0; Primary irritation score, Total ([2]; 48 hours): 0; Primary irritation score, Conjunctiva ([2]; 72 hours): 0; Primary irritation score, Cornea ([2]; 72 hours): 0; Primary irritation score, Iris ([2]; 72 hours): 0; Primary irritation score, Total ([2]; 72 hours): 0; Primary irritation score, Conjunctiva ([2]; 96 hours): 0; Primary irritation score, Cornea ([2]; 96 hours): 0; Primary irritation score, Iris ([2]; 96 hours): 0; Primary irritation score, Total ([2]; 96 hours): 0; Primary irritation score, Conjunctiva ([2]; 168 hours): 0; Primary irritation score, Cornea ([2]; 168 hours): 0; Primary irritation score, Iris ([2]; 168 hours): 0; Primary irritation score, Total ([2]; 168 hours): 0
CCCCCCCC(=O)OCC(COC(=O)[C@@H]1CCC(=O)N1)OC(=O)CCCCCCC (stereo partly drawn) [Compound (162), 2,3-dioctanoyloxy-1-pyroglutamyloxypropane] | 16.1 | 34.0 | 34.2 | 3.3 | 0 | 0 | 3.3 | 2.0 | 0 | 0 | 2.0 | 2.0 | 0 | 0 | 2.0 | 0 | 0 | 0 | 0 | 0 | Primary irritation score, Cornea ([2]; 48 hours): 0; Primary irritation score, Iris ([2]; 48 hours): 0; Primary irritation score, Total ([2]; 48 hours): 0; Primary irritation score, Conjunctiva ([2]; 72 hours): 0; Primary irritation score, Cornea ([2]; 72 hours): 0; Primary irritation score, Iris ([2]; 72 hours): 0; Primary irritation score, Total ([2]; 72 hours): 0; Primary irritation score, Conjunctiva ([2]; 96 hours): 0; Primary irritation score, Cornea ([2]; 96 hours): 0; Primary irritation score, Iris ([2]; 96 hours): 0; Primary irritation score, Total ([2]; 96 hours): 0; Primary irritation score, Conjunctiva ([2]; 168 hours): 0; Primary irritation score, Cornea ([2]; 168 hours): 0; Primary irritation score, Iris ([2]; 168 hours): 0; Primary irritation score, Total ([2]; 168 hours): 0
CCCCCCCCCCCC(=O)OCC(O)COC(=O)[C@@H]1CCC(=O)N1 (stereo partly drawn) [Compound (172), 3-dodecanoyloxy-2-hydroxy-1-pyroglutamyloxypropane] | 18.1 | 37.2 | 35.5 | 3.3 | 0 | 0 | 3.3 | 2.0 | 0 | 0 | 2.0 | 1.3 | 0 | 0 | 1.3 | 0 | 0 | 0 | 0 | 0 | Primary irritation score, Cornea ([2]; 48 hours): 0; Primary irritation score, Iris ([2]; 48 hours): 0; Primary irritation score, Total ([2]; 48 hours): 0; Primary irritation score, Conjunctiva ([2]; 72 hours): 0; Primary irritation score, Cornea ([2]; 72 hours): 0; Primary irritation score, Iris ([2]; 72 hours): 0; Primary irritation score, Total ([2]; 72 hours): 0; Primary irritation score, Conjunctiva ([2]; 96 hours): 0; Primary irritation score, Cornea ([2]; 96 hours): 0; Primary irritation score, Iris ([2]; 96 hours): 0; Primary irritation score, Total ([2]; 96 hours): 0; Primary irritation score, Conjunctiva ([2]; 168 hours): 0; Primary irritation score, Cornea ([2]; 168 hours): 0; Primary irritation score, Iris ([2]; 168 hours): 0; Primary irritation score, Total ([2]; 168 hours): 0
CCCCCCCCC1(CCCCCCCC)OCC(COC(=O)C2CCC(=O)N2)O1 (stereo not drawn) [Compound (214), 2,3-dioxo-(dioctyl)methylene-1-pyroglutamyloxypropane] | 18.2 | 35.3 | 35.5 | 2.0 | 0 | 0 | 2.0 | 2.0 | 0 | 0 | 2.0 | 2.0 | 0 | 0 | 2.0 | 0 | 0 | 0 | 0 | 0 | Primary irritation score, Cornea ([2]; 48 hours): 0; Primary irritation score, Iris ([2]; 48 hours): 0; Primary irritation score, Total ([2]; 48 hours): 0; Primary irritation score, Conjunctiva ([2]; 72 hours): 0; Primary irritation score, Cornea ([2]; 72 hours): 0; Primary irritation score, Iris ([2]; 72 hours): 0; Primary irritation score, Total ([2]; 72 hours): 0; Primary irritation score, Conjunctiva ([2]; 96 hours): 0; Primary irritation score, Cornea ([2]; 96 hours): 0; Primary irritation score, Iris ([2]; 96 hours): 0; Primary irritation score, Total ([2]; 96 hours): 0; Primary irritation score, Conjunctiva ([2]; 168 hours): 0; Primary irritation score, Cornea ([2]; 168 hours): 0; Primary irritation score, Iris ([2]; 168 hours): 0; Primary irritation score, Total ([2]; 168 hours): 0
